Assay results: article PMC12380353, “MK-8527 is a novel inhibitor of HIV-1 reverse transcriptase translocation with potential for extended-duration dosing” (PLOS Biology, 2025)

Columns and labels:
HIV-1 [1] = assay: Single-cycle antiviral assay in PBMCs; type: cell-based
Description: To evaluate the ability of inhibitors to prevent HIV-1 infection in primary cells, human PBMCs obtained from Biological Specialty Corporation (Colmar, PA, USA) were used to assess antiviral activity. The proviral variants used for these studies were generated by site-directed mutagenesis in a proviral vector derived from NL43 [52] that encodes GFP (pNLG1-P2A-GFP). Virus was produced by transfection in 293T cells.
PBMCs were activated with phytohemagglutinin (PHA) at 5 μg/mL in Roswell Park Memorial Institute (RPMI) 1640 medium containing 10% heat-inactivated fetal bovine serum (FBS) for 2–3 days. Compound plates were prepared by dispensing compounds dissolved in DMSO into 384-well poly-d-lysine-coated plates (0.2 μL per well) using an Echo acoustic dispenser (Labcyte; San Jose, CA, USA). Each compound was tested in a 10-point serial 3-fold dilution (typical final concentrations: 5,000 to 0.1 nM). Controls included no inhibitor (DMSO only) and a combination of 3 antiviral agents, efavirenz, indinavir, and the integrase strand transfer inhibitor, L-002254051, at final concentrations of 4 μM each. PHA-activated human PBMCs were washed and resuspended in RPMI 1640 containing 10% NHS and 30 units per mL of interleukin-2 (IL-2) at 6 × 10^5 cells per mL. PBMCs were added to the compound plates and cultured for 24 h at 37 °C, 5% CO2, and 90% humidity. The appropriate HIV-1 variant was added to the PBMCs and cultured at 37 °C, 5% CO2, and 90% humidity for an additional 24 h.
HIV-1–infected cells were quantified by counting the number of GFP cells in each well using an Acumen eX3 scanner (SPT Labtech; Melbourn, UK).

HIV-1 [2] = assay: Multicycle antiviral assay in MT4-GFP cells; type: cell-based; details: 10% NHS
Description: Compounds were evaluated for their ability to prevent HIV-1 infection in MT4-GFP cells as described in Diamond, and colleagues. HIV-1 replication was monitored using the MT4-gag-GFP clone D3, and MT4 cells with a GFP reporter gene, the expression of which is dependent on the HIV-1 expressed proteins tat and rev. […] Proviral variants used for these studies were generated by site-directed mutagenesis in the WT R8 proviral plasmid. Virus was produced by transfection in 293T cells.
Briefly, MT4-GFP cells were cultured overnight with the appropriate HIV-1 variant at an approximate multiplicity of infection of 0.01. After approximately 19 h of infection, the cells were washed and resuspended in assay media containing 10% normal human serum (NHS) before being added to 384-well compound plates containing 10-point serial 3-fold dilutions of compound. Controls included no inhibitor (dimethyl sulfoxide [DMSO] only) and a combination of 3 antiviral agents, efavirenz, indinavir, and an integrase strand transfer inhibitor, L-002254051, at final concentrations of 4 µM each. The infected or treated cells were cultured at 37 °C, 5% CO2, and 90% humidity until evaluation of infection was conducted at approximately 48 and 72 h post-infection by counting the number of GFP cells in each well using an Acumen eX3 scanner (SPT Labtech; Melbourn, UK). The reproductive ratio, R, was calculated by dividing the number of infected cells at 72 h by the number at 48 h post-infection. The percentage inhibition caused by a test compound was calculated by the following formula:
inhibition = [1−(Rtest compound − Rpositive control)]/(RDMSO only − Rpositive control) × 100%\]
The dose–response curves of each test compound were plotted as percentage inhibition versus the test concentration.

In the case of `C#C[C@]1(CO)O[C@@H](n2ccc3c(N)nc(Cl)nc32)C[C@@H]1O` [Compound 12, (2R,3S,5R)-5-(4-amino-2-chloro-7H-pyrrolo[2,3-d]pyrimidin-7-yl)-2-ethynyl-2-(hydroxymethyl)tetrahydrofuran-3-ol], the “PBMC IC50” value (HIV-1 [1]; HIV-1, single-cycle assay, human PBMCs, 10% NHS) is reported as “subnanomolar potency”, the IC50 (HIV-1 [1]; Human immunodeficiency virus 1, PBMC, read-out: PBMC IC50, HIV-1, single-cycle assay, human PBMCs, 10% NHS) is reported as 0.2 nM and the IC50 (HIV-1 [1]; read-out: PBMC IC50, HIV-1, single-cycle assay, human PBMCs, 10% NHS, listed as MK-8527) is reported as 0.21 ± 0.09 nM. The IC50 (HIV-1 [2]; Human immunodeficiency virus 1, WT HIV-1, multicycle assay) was 3.4 nM, the “MT4-GFP IC50” value (HIV-1 [2]; WT HIV-1, multicycle assay) was “single-digit nanomolar potency” and the IC50 (HIV-1 [2]; WT HIV-1, multicycle assay, listed as MK-8527) was 3.37 ± 1 nM.
